From patent US12617798B2, “Imidazopyrazne derivatives” (Hoffmann-La Roche Inc., priority 2020, dated 2026) come the findings set out here.

Assay [1] concerns Acinetobacter baumannii ATCC17961. In words: Antimicrobial susceptibility testing, 90% growth inhibitory concentration (IC90) determination. Type of assay: cell-based. As to conditions: Iso-Sensitest broth, OD 600 nm over 16 h, 35±2° C., read-out: ATCC 17961 IC90. On the procedure:
(§1) 90% Growth Inhibitory Concentration (IC90) Determination The in vitro antimicrobial activity of the compounds was determined according to the following procedure: The assay used a 10-points Iso-Sensitest broth medium to measure quantitatively the in vitro activity of the compounds against Acinetobacter baumannii ATCC17961 and Pseudomonas aeruginosa ATCC27853. Stock compounds in DMSO were serially twofold diluted (e.g. range from 50 to 0.097 μM final concentration) in 384 wells microtiter plates and inoculated with 49 μl the bacterial suspension in Iso-Sensitest medium to have a final cell concentration of ˜5×10^(5) CFU/ml in a final volume/well of 50 ul/well. Microtiter plates were incubated at 35±2° C. Bacterial cell growth was determined with the measurement of optical density at λ=600 nm each 20 minutes over a time course of 16 h. Growth inhibition was calculated during the logarithmic growth of the bacterial cells with determination of the concentration inhibiting 50% (IC50) and 90% (IC90) of the growth. Table 1 provides the 90% growth inhibitory concentrations (IC90) in micromoles per liter of the compounds of present invention obtained against the strain Acinetobacter baumannii ATCC17961.

Assay [2] concerns Pseudomonas aeruginosa ATCC27853. Described as above. Type of assay: cell-based. As to conditions: Iso-Sensitest broth, OD 600 nm over 16 h, 35±2° C., read-out: ATCC 27853 IC90. On the procedure: as §1, with “Table 2” for “Table 1”, “strain Pseudomonas aeruginosa ATCC27853.” for “strain Acinetobacter baumannii ATCC17961.”

Counter-ions that a name gives are not always drawn.

By IC90 is commonly meant the concentration at which the effect reaches the 90% level. `CCc1cc(Nc2nccn3c(-c4ccc(-c5c(C)nn(CCOC)c5C)c(F)c4F)cnc23)ccc1C(=O)NCC1CC[N+](C)(CC2CNC2)CC1` (centres unmarked) [Example C7, N-[[1-(azetidin-3-ylmethyl)-1-methyl-piperidin-1-ium-4-yl]methyl]-4-[[3-[2,3-difluoro-4-[1-(2-methoxyethyl)-3,5-dimethyl-pyrazol-4-yl]phenyl]imidazo[1,2-a]pyrazin-8-yl]amino]-2-ethyl-benzamide; formic acid; formate]: the IC90 in assay [1] was determined as 320 nM; in assay [2], 390 nM.
